Results as given in US20250361239A1, “PROTEIN DEGRADERS AND USES THEREOF” (ZHUHAI YUFAN BIOTECHNOLOGIES CO., LTD., priority 2022, published 2025).

biological target: T1, GSPT1 (Homo sapiens, UniProt P15170+Q96SW2); assay: Degradation of GSPT1 by the compounds (HiBiT signal in GSPT1/HEK293 hibit cells); format: cell-based; details: 6 h incubation, Nano Glo HiBiT Lytic Detection
T1 construct: host or cells: HEK293
Protocol: GSPT1/HEK293 hibit cell lines were constructed by Shanghai BioDuro Co., Ltd., HEK293 cell lines were purchased from ATCC (Cat #ATCC® CRL-1573™), DMEM media were purchased from ATCC (Cat #ATCC® 30-2002™), FBS was purchased from Gibco (Cat #10091148), Nano Glo HiBiT Lytic Detection System was purchased from Promega (Cat #N3040), and 96-well plates were purchased from coming (Cat #3610).
The degradation of GSPT1 by the compounds was determined by measuring the intensity of hibit signals in cells. Firstly, the cells were digested with pancreatin, and the digestion was then terminated with medium. The cells were centrifuged, and the supernatant was discarded. The centrifuged cells were resuspended in a fresh complete medium, and the cell density was adjusted to 2.5×10^4 cells/mL. The resuspended cells were inoculated into an opaque 96-well cell culture plate at 100 μL of cell suspension per well, and the cell culture plate was incubated in a cell incubator at 37° C. overnight. The next day, dilutions (20 μL) of compounds with different concentrations were added, and the plate was incubated in a cell incubator for 6 h. After 6 h, 60 μL of Nano Glo HiBiT Lytic Detection System reagent was added and the luminescence values were read on the instrument.
According to the corresponding degradation rate and concentration of each gradient concentration well, a gradient curve of degradation rate was fitted using XLFit software, and the DC50 values of compounds were calculated.

T1 sequence (P15170 whole entry): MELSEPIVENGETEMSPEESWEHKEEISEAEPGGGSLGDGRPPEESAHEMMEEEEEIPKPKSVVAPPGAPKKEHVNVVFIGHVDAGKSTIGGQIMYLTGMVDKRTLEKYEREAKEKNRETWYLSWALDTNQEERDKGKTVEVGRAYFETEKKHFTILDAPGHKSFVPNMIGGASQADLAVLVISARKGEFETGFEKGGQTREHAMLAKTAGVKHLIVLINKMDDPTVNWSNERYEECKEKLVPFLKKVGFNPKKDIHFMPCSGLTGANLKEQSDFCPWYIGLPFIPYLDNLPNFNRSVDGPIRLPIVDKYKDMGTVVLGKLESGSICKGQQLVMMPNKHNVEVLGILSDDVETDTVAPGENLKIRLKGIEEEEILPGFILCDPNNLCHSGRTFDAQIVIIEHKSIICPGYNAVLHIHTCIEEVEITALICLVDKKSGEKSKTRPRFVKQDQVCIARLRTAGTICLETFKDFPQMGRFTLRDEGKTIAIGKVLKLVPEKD
T1 sequence (Q96SW2 whole entry): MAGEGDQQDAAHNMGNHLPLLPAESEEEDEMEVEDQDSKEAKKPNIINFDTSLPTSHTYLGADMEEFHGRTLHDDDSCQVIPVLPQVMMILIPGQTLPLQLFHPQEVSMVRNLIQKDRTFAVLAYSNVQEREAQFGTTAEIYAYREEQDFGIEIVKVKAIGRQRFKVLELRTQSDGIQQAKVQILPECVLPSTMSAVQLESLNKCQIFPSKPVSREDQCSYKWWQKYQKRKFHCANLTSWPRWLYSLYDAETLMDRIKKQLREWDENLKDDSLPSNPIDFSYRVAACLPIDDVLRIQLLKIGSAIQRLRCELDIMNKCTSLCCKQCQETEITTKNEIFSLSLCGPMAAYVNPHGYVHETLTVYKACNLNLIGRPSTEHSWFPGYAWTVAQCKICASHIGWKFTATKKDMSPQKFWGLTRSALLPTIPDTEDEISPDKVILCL
T1 sequence (Q16531 whole entry partner): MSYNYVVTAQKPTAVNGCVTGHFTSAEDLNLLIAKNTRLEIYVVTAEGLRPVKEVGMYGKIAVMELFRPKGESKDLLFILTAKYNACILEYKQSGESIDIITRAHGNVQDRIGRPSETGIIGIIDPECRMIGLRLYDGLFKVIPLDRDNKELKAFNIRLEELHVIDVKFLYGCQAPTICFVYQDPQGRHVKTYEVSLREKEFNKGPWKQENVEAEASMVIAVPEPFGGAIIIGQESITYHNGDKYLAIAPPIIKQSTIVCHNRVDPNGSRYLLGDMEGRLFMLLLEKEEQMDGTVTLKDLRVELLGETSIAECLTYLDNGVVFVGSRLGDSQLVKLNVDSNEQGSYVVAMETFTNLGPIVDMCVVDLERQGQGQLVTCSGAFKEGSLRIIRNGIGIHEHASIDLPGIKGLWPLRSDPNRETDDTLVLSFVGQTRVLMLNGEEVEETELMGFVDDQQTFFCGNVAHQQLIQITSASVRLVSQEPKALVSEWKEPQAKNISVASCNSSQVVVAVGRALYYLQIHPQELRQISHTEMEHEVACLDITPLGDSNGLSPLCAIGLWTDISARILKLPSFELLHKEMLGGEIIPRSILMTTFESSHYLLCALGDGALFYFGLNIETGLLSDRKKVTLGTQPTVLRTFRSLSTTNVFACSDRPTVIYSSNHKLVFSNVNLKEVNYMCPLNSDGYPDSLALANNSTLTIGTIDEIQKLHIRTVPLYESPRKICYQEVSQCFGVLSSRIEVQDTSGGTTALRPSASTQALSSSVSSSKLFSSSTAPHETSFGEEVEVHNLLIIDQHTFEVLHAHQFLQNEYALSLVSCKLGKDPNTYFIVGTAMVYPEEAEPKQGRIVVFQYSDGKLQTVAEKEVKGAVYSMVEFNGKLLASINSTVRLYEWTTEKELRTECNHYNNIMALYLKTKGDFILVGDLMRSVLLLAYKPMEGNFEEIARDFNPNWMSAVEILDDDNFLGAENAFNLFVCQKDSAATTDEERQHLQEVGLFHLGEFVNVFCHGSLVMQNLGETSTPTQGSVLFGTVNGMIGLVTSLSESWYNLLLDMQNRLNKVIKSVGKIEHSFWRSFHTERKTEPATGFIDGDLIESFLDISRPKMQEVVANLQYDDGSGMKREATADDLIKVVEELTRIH

| SMILES | DC50 [nM] |
| --- | --- |
| O=C1CCC(N2C(=O)c3cccc(NCc4cccc(C(=O)NC5CCC(c6nc7cccnc7s6)CC5)c4)c3C2=O)C(=O)N1 (stereo not shown) [Example 57] | < 100 |
| CNc1ccc2c(c1)nc(C1CCC(NC(=O)c3cccc(CNc4cccc5c4C(=O)N(C4CCC(=O)NC4=O)C5=O)c3)CC1)n2C (stereo not shown) [Example 86] | < 100 |
| O=C1CCC(N2C(=O)c3cccc(NCc4cccc(NC(=O)[C@H]5CC[C@H](c6nc7cccnc7s6)CC5)n4)c3C2=O)C(=O)N1 (stereo partly shown) [Example 62] | < 100 |
| O=C1CCC(N2C(=O)c3cccc(NCc4ccc5cn([C@H]6CC[C@H](c7nc8cccnc8s7)CC6)nc5c4)c3C2=O)C(=O)N1 (stereo partly shown) [Example 38] | < 100 |
| O=C1CCC(N2C(=O)c3cccc(NCc4cccc(C(=O)NC5CCC(c6coc7ccccc67)CC5)c4)c3C2=O)C(=O)N1 (stereo not shown) [Example 13] | < 100 |
| COc1ccc(CNc2cccc3c2C(=O)N(C2CCC(=O)NC2=O)C3=O)cc1C(=O)N[C@H]1CC[C@H](c2nc3cc(N)cnc3s2)CC1 (stereo partly shown) [Example 132] | < 100 |
| Cn1c2ncccc2nc1[C@H]1CC[C@H](NC(=O)c2cc(CNc3cccc4c3C(=O)N(C3CCC(=O)NC3=O)C4=O)ccn2)CC1 (stereo partly shown) [Example 43] | < 100 |
| Cn1c2cc(N)ccc2nc1[C@H]1CC[C@H](NC(=O)c2cc(CNc3cccc4c3C(=O)N(C3CCC(=O)NC3=O)C4=O)ccn2)CC1 (stereo partly shown) [Example 131] | < 100 |
| CCCn1c(C2CCC(NC(=O)c3cccc(CNc4cccc5c4C(=O)N(C4CCC(=O)NC4=O)C5=O)c3)CC2)nc2cccnc21 (stereo not shown) [Example 84] | < 100 |
| O=C1CCC(N2C(=O)c3cccc(NCc4cccc(C(=O)NC5CCC(c6nc7ccccc7o6)CC5)c4)c3C2=O)C(=O)N1 (stereo not shown) [Example 17] | < 100 |
| Cn1c(C2CCC(NC(=O)c3cc(CNc4cccc5c4C(=O)N(C4CCC(=O)NC4=O)C5=O)ccn3)CC2)nc2ccncc21 (stereo not shown) [Example 23] | < 100 |
| Cn1c(C2CCC(NC(=O)c3cc(CNc4cccc5c4C(=O)N(C4CCC(=O)NC4=O)C5=O)ccc3F)CC2)nc2ccncc21 (stereo not shown) [Example 77] | < 100 |
| O=C1CCC(N2C(=O)c3cccc(NCc4cccc(C(=O)NC5CCC(c6cc7ccncc7s6)CC5)c4)c3C2=O)C(=O)N1 (stereo not shown) [Example 50] | < 100 |
| O=C1CCC(N2C(=O)c3cccc(NCc4ccc(C(=O)NC5CCC(c6nc7c(cnc8[nH]cc(C9CCOCC9)c87)[nH]6)CC5)cc4)c3C2=O)C(=O)N1 (stereo not shown) [Example 116] | < 100 |
| O=C1CCC(N2C(=O)c3cccc(NCc4cccc(C(=O)NC5CCCC(F)(F)C5)c4)c3C2=O)C(=O)N1 (stereo not shown) [Example 3] | < 100 |
| O=C1CCC(N2C(=O)c3cccc(NCc4cccc(C(=O)NC5CCC(c6csc7cncnc67)CC5)c4)c3C2=O)C(=O)N1 (stereo not shown) [Example 60] | < 100 |
| CN(C(=O)c1cc(CNc2cccc3c2C(=O)N(C2CCC(=O)NC2=O)C3=O)ccn1)[C@H]1CC[C@H](c2nc3cccnc3s2)CC1 (stereo partly shown) [Example 79] | < 100 |
| COc1ccc2nc([C@H]3CC[C@H](CNc4cc(COc5cccc6c5CN(C5CCC(=O)NC5=O)C6=O)ccn4)CC3)sc2n1 (stereo partly shown) [Example 136] | < 100 |
| CCn1c(C2CCC(NC(=O)c3cccc(CNc4cccc5c4C(=O)N(C4CCC(=O)NC4=O)C5=O)c3)CC2)nc2ccncc21 (stereo not shown) [Example 71] | < 100 |
| COc1ccc(CNc2cccc3c2C(=O)N(C2CCC(=O)NC2=O)C3=O)cc1C(=O)N[C@H]1CC[C@H](c2nc3cc(N)ccc3s2)CC1 (stereo partly shown) [Example 133] | < 100 |
| O=C1CCC(N2C(=O)c3cccc(NCc4cccc(C(=O)NC5CCC(c6ccccc6)CC5)c4)c3C2=O)C(=O)N1 (stereo not shown) [Example 4] | < 100 |
| O=C1CCC(N2C(=O)c3cccc(NCc4cccc(C(=O)NC5CCC(c6cc7ccccc7o6)CC5)c4)c3C2=O)C(=O)N1 (stereo not shown) [Example 12] | < 100 |
| O=C1CCC(N2C(=O)c3cccc(NCc4cccc(C(=O)NC5CCCC(F)C5)c4)c3C2=O)C(=O)N1 (stereo not shown) [Example 1] | < 100 |

tested on: HL60 cells; assay: HL60 cell killing experiment (CellTiter-Glo cell viability); format: cell-based; details: 48 h incubation, CTG luminescence
Protocol: HL60 cell lines were purchased from ATCC (Cat #ATCC® CCL-240™), IMDM media were purchased from ATCC (Cat #ATCC® 30-2005™), FBS was purchased from Gibco (Cat #10091148), celltiter-glo luminescent cell viability assay was purchased from promega (Cat #G7572), and 96-well plates were purchased from corning (Cat #3610).
The effect of compounds on the growth of HL60 cells was determined by measuring cell viability. Firstly, cells in the logarithmic growth phase were collected and centrifuged, and the culture supernatant was discarded. The centrifuged cells were resuspended in a fresh complete medium, and the cell density was adjusted to 5×10^4 cells/mL. The resuspended cells were inoculated into two opaque 96-well cell culture plates at 100 μL of cell suspension per well, and the cell culture plates were incubated in a cell incubator at 37° C. for 4 h. After 4 h, dilutions (20 μL) of compounds with different concentrations were added. After one of the cell plates was cooled to room temperature, 60 μL of CTG reagent was added, and the luminescence values were read on the instrument as G0. The other one was incubated in a cell incubator for 48 h. After 48 h, 60 μL of CTG reagent was added, and the luminescence values were read on the instrument as G3.
According to the corresponding proliferation rate and concentration of each gradient concentration well, a gradient curve of cell proliferation was fitted using XLFit software, and the GI50 values of compounds were calculated.

| SMILES | GI50 [nM] |
| --- | --- |
| O=C1CCC(N2C(=O)c3cccc(NCc4cccc(C(=O)NC5CCC(c6nc7ccccc7o6)CC5)c4)c3C2=O)C(=O)N1 (stereo not shown) [Example 17] | < 100 |

same assay, conditions: Homo sapiens, HL-60, 48 h incubation, CTG luminescence

| SMILES | GI50 [nM] |
| --- | --- |
| O=C1CCC(N2C(=O)c3cccc(NCc4cccc(C(=O)NC5CCC(c6nc7cccnc7s6)CC5)c4)c3C2=O)C(=O)N1 (stereo not shown) [Example 57] | < 100 |
| CNc1ccc2c(c1)nc(C1CCC(NC(=O)c3cccc(CNc4cccc5c4C(=O)N(C4CCC(=O)NC4=O)C5=O)c3)CC1)n2C (stereo not shown) [Example 86] | < 100 |
| O=C1CCC(N2C(=O)c3cccc(NCc4cccc(NC(=O)[C@H]5CC[C@H](c6nc7cccnc7s6)CC5)n4)c3C2=O)C(=O)N1 (stereo partly shown) [Example 62] | < 100 |
| O=C1CCC(N2C(=O)c3cccc(NCc4ccc5cn([C@H]6CC[C@H](c7nc8cccnc8s7)CC6)nc5c4)c3C2=O)C(=O)N1 (stereo partly shown) [Example 38] | < 100 |
| O=C1CCC(N2C(=O)c3cccc(NCc4cccc(C(=O)NC5CCC(c6coc7ccccc67)CC5)c4)c3C2=O)C(=O)N1 (stereo not shown) [Example 13] | < 100 |
| Cn1c2ncccc2nc1[C@H]1CC[C@H](NC(=O)c2cc(CNc3cccc4c3C(=O)N(C3CCC(=O)NC3=O)C4=O)ccn2)CC1 (stereo partly shown) [Example 43] | < 100 |
| CCCn1c(C2CCC(NC(=O)c3cccc(CNc4cccc5c4C(=O)N(C4CCC(=O)NC4=O)C5=O)c3)CC2)nc2cccnc21 (stereo not shown) [Example 84] | < 100 |
| Cn1c(C2CCC(NC(=O)c3cc(CNc4cccc5c4C(=O)N(C4CCC(=O)NC4=O)C5=O)ccn3)CC2)nc2ccncc21 (stereo not shown) [Example 23] | < 100 |
| Cn1c(C2CCC(NC(=O)c3cc(CNc4cccc5c4C(=O)N(C4CCC(=O)NC4=O)C5=O)ccc3F)CC2)nc2ccncc21 (stereo not shown) [Example 77] | < 100 |
| O=C1CCC(N2C(=O)c3cccc(NCc4cccc(C(=O)NC5CCC(c6cc7ccncc7s6)CC5)c4)c3C2=O)C(=O)N1 (stereo not shown) [Example 50] | < 100 |
| O=C1CCC(N2C(=O)c3cccc(NCc4ccc(C(=O)NC5CCC(c6nc7c(cnc8[nH]cc(C9CCOCC9)c87)[nH]6)CC5)cc4)c3C2=O)C(=O)N1 (stereo not shown) [Example 116] | < 100 |
| O=C1CCC(N2C(=O)c3cccc(NCc4cccc(C(=O)NC5CCC(c6csc7cncnc67)CC5)c4)c3C2=O)C(=O)N1 (stereo not shown) [Example 60] | < 100 |
| CN(C(=O)c1cc(CNc2cccc3c2C(=O)N(C2CCC(=O)NC2=O)C3=O)ccn1)[C@H]1CC[C@H](c2nc3cccnc3s2)CC1 (stereo partly shown) [Example 79] | < 100 |
| CCn1c(C2CCC(NC(=O)c3cccc(CNc4cccc5c4C(=O)N(C4CCC(=O)NC4=O)C5=O)c3)CC2)nc2ccncc21 (stereo not shown) [Example 71] | < 100 |
| O=C1CCC(N2C(=O)c3cccc(NCc4cccc(C(=O)NC5CCC(c6cc7ccccc7o6)CC5)c4)c3C2=O)C(=O)N1 (stereo not shown) [Example 12] | < 100 |
| O=C1CCC(N2C(=O)c3cccc(NCc4cccc(C(=O)NC5CCCC(F)C5)c4)c3C2=O)C(=O)N1 (stereo not shown) [Example 1] | < 100 |
